Test results taken from patent US20120101110A1, “Diaza-spiro[5.5]undecanes” (priority 2010, published 2012).

Columns and labels:
[1] = target: T1, human orexin 1 receptors (Homo sapiens, UniProt O43613); experiment: Calcium accumulation in cells (FLIPR), hOx1R
T1 sequence (O43613 1-425): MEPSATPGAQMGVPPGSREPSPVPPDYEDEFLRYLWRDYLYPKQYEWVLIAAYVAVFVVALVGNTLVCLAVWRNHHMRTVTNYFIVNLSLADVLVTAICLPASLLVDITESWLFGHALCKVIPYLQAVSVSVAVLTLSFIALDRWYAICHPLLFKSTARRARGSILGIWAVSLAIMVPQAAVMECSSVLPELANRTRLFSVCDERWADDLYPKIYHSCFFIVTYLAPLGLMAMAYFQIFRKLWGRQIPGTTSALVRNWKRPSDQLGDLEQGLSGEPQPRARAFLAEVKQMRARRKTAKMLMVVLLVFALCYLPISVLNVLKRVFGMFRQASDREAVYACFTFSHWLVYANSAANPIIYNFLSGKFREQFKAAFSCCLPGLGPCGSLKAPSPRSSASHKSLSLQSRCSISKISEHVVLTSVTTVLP
Method: (§1) Cells expressing human orexin 1 or human orexin 2 receptors, were seeded at 8,000 cells/well in 384 well black-walled clear bottom, poly-D-lysine coated plates. After 24 h, the medium was removed and cells were washed once with phosphate buffered saline and serum-deprived overnight in assay buffer (130 mM NaCl, 5.4 mM KCl, 1.8 mM CaCl2, 0.8 mM MgSO4, 0.9 mM NaH2PO4, 25 mM glucose, 20 mM HEPES, pH 7.4) containing bovine serum albumin (1% w/v).
On the day of the experiment, the cells seeded in black plates were treated with assay buffer containing the Ca^2+sensitive fluorescent dye Fluo-4-AM (2 μM), and probenecid (0.1 mM). After 1 h plates were washed twice with, and resuspended in, assay buffer containing probenecid (0.1 mM) using a multi plate washer. The plates were placed into a FLIPR II (Fluorometric Imaging Plate Reader, Molecular Devices, Sunnyvale, Calif., USA) and baseline fluorescence (fluorescence light units, FLU) was measured (5 measurements, 2 S each; laser excitation 488 nm at 0.6-1 W, CCD camera exposure 0.4 s) before addition of buffer alone (basal) or containing test compounds (either compound of formula I alone, agonist alone or agonist in the presence of various concentrations of compounds of formula I). Fluorescence measurements were then continued every 1 S for 120 S followed by every 4 S for 240 S.
(§2) Compounds of formula I were tested usually in a concentration range from 10^−9 M to 10^−5 M. In the second round, performed one hour later (to allow for equilibration), Orexin A was tested either in the absence (calibration curves, Orexin A agonist controls) or in the presence of compounds of formula I to determine antagonism.
Inhibition data is expressed in Table 2 as Ki [μM], converted by the Cheng and Prusoff correction (Ki=IC50/1+(L/EC50)), where IC50 is the 50% inhibition value determined in concentration response inhibition curves, EC50 is the half maximal activation concentration determined for orexin A in concentration response curves and L is the concentration of orexin A used in inhibition experiments performed in with a submaximal concentration of orexin A in the presence of up to 8 increasing concentrations of compound of formula I. Inhibition data is also expressed in Table 2 as % inhibition value measured at a concentration of 10 μM of selected compounds of formula I.

[2] = target: T2, human orexin 2 receptors (Homo sapiens, UniProt O43614); experiment: Calcium accumulation in cells (FLIPR), hOx2R; assay type: cell-based; details: cells expressing human orexin 2 receptor; inhibition of orexin A-induced calcium accumulation; Cheng and Prusoff correction
T2 sequence (O43614 1-444): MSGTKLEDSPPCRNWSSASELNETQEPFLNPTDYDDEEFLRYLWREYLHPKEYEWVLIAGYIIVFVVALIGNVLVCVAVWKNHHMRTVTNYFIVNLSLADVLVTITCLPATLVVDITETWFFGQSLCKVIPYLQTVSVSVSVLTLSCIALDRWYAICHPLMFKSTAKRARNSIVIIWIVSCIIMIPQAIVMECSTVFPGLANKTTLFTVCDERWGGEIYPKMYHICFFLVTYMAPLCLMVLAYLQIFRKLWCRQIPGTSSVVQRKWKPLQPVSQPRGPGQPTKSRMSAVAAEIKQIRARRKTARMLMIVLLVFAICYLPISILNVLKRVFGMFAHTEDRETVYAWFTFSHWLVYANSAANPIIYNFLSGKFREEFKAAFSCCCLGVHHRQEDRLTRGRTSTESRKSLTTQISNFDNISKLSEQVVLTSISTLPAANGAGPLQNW
Method: as §1
On the day of the experiment, the cells seeded in black plates were treated with assay buffer containing the Ca^2+sensitive fluorescent dye Fluo-4-AM (2 μM), and probenecid (0.1 mM). After 1 h plates were washed twice with, and resuspended in, assay buffer containing probenecid (0.1 mM) using a multi plate washer. […] Fluorescence measurements were then continued every 1 S for 120 S followed by every 4 S for 240 S.
The measurements were typically made in two sequences:
as §2

[3] = target: T1, human orexin 1 receptors; experiment: Radioligand binding assay ([3H]-SB649868 competition), hOx1R; details: competition with about 1 nM [3H]-SB649868; CHO or HEK cell membranes expressing human orexin 1 receptor
Outline: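 Membranes from hOx1R-expressing cells incubated 1 h at room temperature with about 1 nM [3H]-SB649868 and test compound, in triplicate. Buffer was 10 mM HEPES pH 7.5, 0.5% BSA, 5 mM MgCl2, 1 mM CaCl2, 0.05% tween; 10 μM almorexant defined non-specific binding. Filtration then counting of bound radioactivity; values reported as Kd.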

[4] = target: T2, human orexin 2 receptors; experiment: Radioligand binding assay ([3H]-SB649868 competition), hOx2R; details: competition with about 1 nM [3H]-SB649868; CHO or HEK cell membranes expressing human orexin 2 receptor; read-out: binding hOx2R Kd
Outline: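 Membranes were incubated 1 h at room temperature in 10 mM HEPES pH 7.5 with 0.5% BSA, 5 mM MgCl2, 1 mM CaCl2 and 0.05% Tween, with about 1 nM [3H]-SB649868 and test compounds in triplicate. Non-specific binding was defined with 10 μM almorexant, and bound radioactivity was counted.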

Compound	Ki [1]	Ki [2]	Kd [3]	Kd [4]
N#Cc1cccc(N2CCC3(CCCN(Cc4cccc(-c5ncccn5)c4)C3=O)CC2)n1 [Example 34, 6-(1-oxo-2-(3-(pyrimidin-2-yl)benzyl)-2,9-diazaspiro[5.5]undecan-9-yl)picolinonitrile]	0.554 µM	0.073 µM	2.29 µM	0.674 µM
O=C1CCCC2(CCN(c3cncc(Cl)n3)CC2)N1Cc1cccc2[nH]ccc12 [Example 44, 1-((1H-indol-4-yl)methyl)-9-(6-chloropyrazin-2-yl)-1,9-diazaspiro[5.5]undecan-2-one]	1.57 µM	0.012 µM	5.74 µM	0.238 µM
N#Cc1cccc(N2CCC3(CCCN(Cc4c[nH]c5ccccc45)C3=O)CC2)n1 [Example 83, 6-(2-((1H-indol-3-yl)methyl)-1-oxo-2,9-diazaspiro[5.5]undecan-9-yl)picolinonitrile]	1.52 µM	0.013 µM	> 10 µM	2.11 µM
Cc1ccc2[nH]cc(CN3CCCC4(CCN(c5nc(C)cc(C)n5)CC4)C3=O)c2c1 [Example 104, 9-(4,6-dimethylpyrimidin-2-yl)-2-((5-methyl-1H-indol-3-yl)methyl)-2,9-diazaspiro[5.5]undecan-1-one]	0.292 µM	0.0048 µM	1.02 µM	0.025 µM
COc1cc(C)nc(N2CCC3(CCCN(Cc4c[nH]c5ccccc45)C3=O)CC2)n1 [Example 4, 2-((1H-indol-3-yl)methyl)-9-(4-methoxy-6-methylpyrimidin-2-yl)-2,9-diazaspiro[5.5]undecan-1-one]	0.135 µM	0.0022 µM	0.863 µM	0.043 µM
Cc1cnc(-c2cccc(CN3CCCC4(CCN(c5cccc(C#N)n5)CC4)C3=O)c2)o1 [Example 39, 6-(2-(3-(5-methyloxazol-2-yl)benzyl)-1-oxo-2,9-diazaspiro[5.5]undecan-9-yl)picolinonitrile]	0.533 µM	0.029 µM	1.44 µM	0.367 µM
Cc1cc(C)nc(N2CCC3(CCCN(Cc4nc(C)sc4-c4ccccc4)C3=O)CC2)n1 [Example 109, 9-(4,6-dimethylpyrimidin-2-yl)-2-((2-methyl-5-phenylthiazol-4-yl)methyl)-2,9-diazaspiro[5.5]undecan-1-one]	1.37 µM	0.042 µM	2.56 µM	0.188 µM
Cc1ccnc(N2CCC3(CCCN(Cc4c[nH]c5ccccc45)C3=O)CC2)n1 [Example 12, 2-((1H-indol-3-yl)methyl)-9-(4-methylpyrimidin-2-yl)-2,9-diazaspiro[5.5]undecan-1-one]	1.5 µM	0.03 µM	1.17 µM	0.056 µM
Cc1nc(N2CCC3(CCCN(Cc4c[nH]c5ccccc45)C3=O)CC2)ncc1F [Example 102, 2-((1H-indol-3-yl)methyl)-9-(5-fluoro-4-methylpyrimidin-2-yl)-2,9-diazaspiro[5.5]undecan-1-one]	1.07 µM	0.04 µM	1.16 µM	0.059 µM
